Here are results for 15 compounds from PubChem BioAssay AID248 (DTP/NCI, 2004).

Each structure is given as a SMILES string. Several values for one entry are separate records, joined by “and”; a condition that tells them apart may be missing. Equal values may be shown once. Toxic doses and inconclusive results are not listed.

In the experiment the test system is L1210 leukemia ip in BDF1 mice, survival T/C. The experiment is described as follows: NCI In Vivo Anticancer Drug Screen. Data for tumor model L1210 Leukemia (intraperitoneal) in B6D2F1 (BDF1) mice. Particulars: endpoint: mean survival time, higher = longer survival. In short, it runs like this:
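Mice bearing the transplanted tumor received compound or vehicle. Survival of the treated group was divided by that of the vehicle-treated control group to give the ratio.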

[1] abbreviates: dose: 12.5 mg/kg/injection, schedule: Q01DX009 (ip), vehicle: saline.
Setting [2] is: dose: 12.5 mg/kg/injection, schedule: Q04DX003 (ip), vehicle: saline.
Setting [3] is: dose: 25.0 mg/kg/injection, schedule: Q01DX009 (ip), vehicle: saline.
Where [4] appears, read: dose: 25.0 mg/kg/injection, schedule: Q04DX003 (ip), vehicle: saline.
The mark [5] stands for this setting: dose: 50.0 mg/kg/injection, schedule: Q01DX009 (ip), vehicle: saline.
[6] abbreviates: dose: 50.0 mg/kg/injection, schedule: Q04DX003 (ip), vehicle: saline.
The mark [7] stands for this setting: dose: 100.0 mg/kg/injection, schedule: Q04DX003 (ip), vehicle: saline.
Where [8] appears, read: dose: 200.0 mg/kg/injection, schedule: Q04DX003 (ip), vehicle: saline.
Where [9] appears, read: dose: 100.0 mg/kg/injection, schedule: Q01DX009 (ip), vehicle: Klucel (hydroxypropylcellulose) (HPC).
The mark [10] stands for this setting: dose: 100.0 mg/kg/injection, schedule: Q04DX003 (ip), vehicle: Klucel (hydroxypropylcellulose) (HPC).
[11] abbreviates: dose: 200.0 mg/kg/injection, schedule: Q01DX009 (ip), vehicle: Klucel (hydroxypropylcellulose) (HPC).
The mark [12] stands for this setting: dose: 200.0 mg/kg/injection, schedule: Q04DX003 (ip), vehicle: Klucel (hydroxypropylcellulose) (HPC).
The mark [13] stands for this setting: dose: 400.0 mg/kg/injection, schedule: Q04DX003 (ip), vehicle: Klucel (hydroxypropylcellulose) (HPC).

Take `CCOC(=O)N(C1CCCCC1)P(=O)(OCC)OCC`: the T/C under setting [1] is 96 % of control and 108 % of control; the T/C under setting [2] is 100 % of control; the T/C under setting [3] was 100 % of control and 91 % of control; the T/C under setting [4] is 107 % of control; the T/C under setting [5] was 97 % of control and 100 % of control; the T/C under setting [6] was 110 % of control. Moreover, the T/C by setting is: (dose: 100.0 mg/kg/injection, schedule: Q01DX009 (ip), vehicle: saline) 103 % of control and 91 % of control; under setting [7], 103 % of control; under setting [8], 100 % of control.

As for `CCC(C)(O)C#CC#CC(C)(O)CC` (centres undefined), the T/C is 93 % of control (dose: 6.25 mg/kg/injection, schedule: Q01DX009 (ip), vehicle: saline with Tween-80); 100 % of control (dose: 12.5 mg/kg/injection, schedule: Q01DX009 (ip), vehicle: saline with Tween-80); 101 % of control (dose: 12.5 mg/kg/injection, schedule: Q04DX003 (ip), vehicle: saline with Tween-80); 96 % of control (dose: 25.0 mg/kg/injection, schedule: Q01DX009 (ip), vehicle: saline with Tween-80); 97 % of control (dose: 25.0 mg/kg/injection, schedule: Q04DX003 (ip), vehicle: saline with Tween-80); 87 % of control (dose: 50.0 mg/kg/injection, schedule: Q04DX003 (ip), vehicle: saline with Tween-80). Moreover, the T/C under setting [9] is 93 % of control; the T/C under setting [10] was 103 % of control; the T/C under setting [11] was 101 % of control; the T/C under setting [12] was 106 % of control; the T/C (dose: 400.0 mg/kg/injection, schedule: Q01DX009 (ip), vehicle: Klucel (hydroxypropylcellulose) (HPC)) is 102 % of control; the T/C under setting [13] is 104 % of control.

Take `Cc1cccc(OC(=O)Nc2ccc(Cl)cc2)c1`: the T/C (dose: 100.0 mg/kg/injection, schedule: Q01DX001 (ip), vehicle: saline with Tween-80) is 93 % of control; the T/C (dose: 100.0 mg/kg/injection, schedule: Q01DX009 (ip), vehicle: saline with Tween-80) is 89 % of control; the T/C (dose: 100.0 mg/kg/injection, schedule: Q04DX002 (ip), vehicle: Klucel (hydroxypropylcellulose) (HPC)) is 88 % of control; the T/C (dose: 100.0 mg/kg/injection, schedule: Q04DX002 (ip), vehicle: saline with Tween-80) was 100 % of control and 92 % of control; the T/C (dose: 200.0 mg/kg/injection, schedule: Q01DX001 (ip), vehicle: saline with Tween-80) was 90 % of control; the T/C (dose: 200.0 mg/kg/injection, schedule: Q01DX009 (ip), vehicle: saline with Tween-80) was 93 % of control. Moreover, the T/C is 98 % of control (dose: 200.0 mg/kg/injection, schedule: Q04DX002 (ip), vehicle: Klucel (hydroxypropylcellulose) (HPC)); 107 % of control and 90 % of control (dose: 200.0 mg/kg/injection, schedule: Q04DX002 (ip), vehicle: saline with Tween-80); 90 % of control (dose: 400.0 mg/kg/injection, schedule: Q01DX001 (ip), vehicle: saline with Tween-80); 109 % of control (dose: 400.0 mg/kg/injection, schedule: Q04DX002 (ip), vehicle: Klucel (hydroxypropylcellulose) (HPC)); 113 % of control and 114 % of control (dose: 400.0 mg/kg/injection, schedule: Q04DX002 (ip), vehicle: saline with Tween-80).

For `COc1ccc(C2(OC)Oc3cc(OC)ccc3C(=O)C2(O)OC)cc1` (centres undefined), the T/C was 98 % of control (dose: 50.0 mg/kg/injection, schedule: Q01DX001 (ip), vehicle: saline) and 104 % of control (dose: 100.0 mg/kg/injection, schedule: Q01DX001 (ip), vehicle: saline).

In the case of `O=C(Nc1cccc(C2=NCCN2)c1)Nc1cc(C(=O)Nc2ccc(C3=NCCN3)cc2)ccc1C(=O)Nc1ccc(C2=NCCN2)cc1`, the T/C is 121 % of control (dose: 1.88 mg/kg/injection, schedule: Q01DX Z (ip), vehicle: saline); 123 % of control (dose: 3.75 mg/kg/injection, schedule: Q01DX Z (ip), vehicle: saline); 98 % of control (dose: 3.75 mg/kg/injection, schedule: Q01DX Z (oral), vehicle: saline); 161 % of control (dose: 7.5 mg/kg/injection, schedule: Q01DX Z (ip), vehicle: saline); 104 % of control (dose: 7.5 mg/kg/injection, schedule: Q01DX Z (oral), vehicle: saline); 103 % of control (dose: 15.0 mg/kg/injection, schedule: Q01DX Z (oral), vehicle: saline). The T/C was 101 % of control (dose: 30.0 mg/kg/injection, schedule: Q01DX Z (oral), vehicle: saline); 101 % of control (dose: 62.5 mg/kg/injection, schedule: Q01DX010 (oral), vehicle: saline); 108 % of control (dose: 125.0 mg/kg/injection, schedule: Q01DX010 (oral), vehicle: saline); 105 % of control (dose: 250.0 mg/kg/injection, schedule: Q01DX010 (oral), vehicle: saline).

As for `O=C(CI)Nc1ccc(Br)cc1`, the T/C is, setting by setting: (dose: 6.25 mg/kg/injection, schedule: Q01DX009 (ip), vehicle: Klucel (hydroxypropylcellulose) (HPC)) 86 % of control; (dose: 12.5 mg/kg/injection, schedule: Q01DX009 (ip), vehicle: Klucel (hydroxypropylcellulose) (HPC)) 91 % of control; (dose: 25.0 mg/kg/injection, schedule: Q01DX009 (ip), vehicle: Klucel (hydroxypropylcellulose) (HPC)) 86 % of control; (dose: 35.0 mg/kg/injection, schedule: Q01DX009 (ip), vehicle: Klucel (hydroxypropylcellulose) (HPC)) 98 % of control.

With `CC1OC(n2cnc3c(N)ncnc32)C(O)C1O` (centres undefined), the T/C by setting is: (dose: 50.0 mg/kg/injection, schedule: Q01DX001 (sc), vehicle: carboxymethylcellulose (CMC)) 104 % of control; (dose: 100.0 mg/kg/injection, schedule: Q01DX001 (sc), vehicle: carboxymethylcellulose (CMC)) 90 % of control; (dose: 200.0 mg/kg/injection, schedule: Q01DX001 (sc), vehicle: carboxymethylcellulose (CMC)) 93 % of control; (dose: 400.0 mg/kg/injection, schedule: Q01DX001 (sc), vehicle: carboxymethylcellulose (CMC)) 106 % of control.

Turning to `COc1cc2c3c(c1)C(O)CC[N+]3(C)CCC2` (centres undefined), the T/C was 90 % of control under setting [1]; 114 % of control under setting [2]; 95 % of control under setting [3]; 98 % of control under setting [4]; 92 % of control under setting [5]; 112 % of control under setting [6].

In the case of `CC1CCCC(NC(=O)NCCCl)C1` (centres undefined), the T/C is 95 % of control under setting [10], 87 % of control under setting [12] and 98 % of control under setting [13].

Take `Brc1cccc[n+]1-c1cc(-[n+]2ccccc2Br)cc(-[n+]2ccccc2Br)c1`: the T/C runs as follows: (dose: 1.17 mg/kg/injection, schedule: Q01DX001 (ip), vehicle: other) 95 % of control; (dose: 2.34 mg/kg/injection, schedule: Q01DX001 (ip), vehicle: other) 102 % of control; (dose: 4.69 mg/kg/injection, schedule: Q01DX001 (ip), vehicle: other) 101 % of control.

Take `CCCCCCCCCCCCCCCC(=O)Nc1ccc(C(=O)C[n+]2ccc3c(NC(=O)CCC(=O)OC)cccc3c2)cc1`: the T/C reads like this: (dose: 75.0 mg/kg/injection, schedule: Q01DX001 (ip), vehicle: other) 86 % of control; (dose: 150.0 mg/kg/injection, schedule: Q01DX001 (ip), vehicle: other) 95 % of control.

As for `O=[N+]([O-])c1ccc(CSCc2ccc(Cl)cc2)cc1`, the T/C by setting is: (dose: 100.0 mg/kg/injection, schedule: Q01DX001 (ip), vehicle: carboxymethylcellulose (CMC)) 97 % of control; (dose: 200.0 mg/kg/injection, schedule: Q01DX001 (ip), vehicle: carboxymethylcellulose (CMC)) 97 % of control; (dose: 400.0 mg/kg/injection, schedule: Q01DX001 (ip), vehicle: carboxymethylcellulose (CMC)) 94 % of control.

Consider `CS(=O)(=O)N(c1nc2ccccc2s1)S(C)(=O)=O`, for which the T/C runs as follows: (dose: 100.0 mg/kg/injection, schedule: Q04DX003 (ip), vehicle: carboxymethylcellulose (CMC)) 95 % of control; (dose: 200.0 mg/kg/injection, schedule: Q04DX003 (ip), vehicle: carboxymethylcellulose (CMC)) 93 % of control; (dose: 400.0 mg/kg/injection, schedule: Q04DX003 (ip), vehicle: carboxymethylcellulose (CMC)) 95 % of control.

For the compound `COc1cc2nc3cc([N+](=O)[O-])ccc3c(Cl)c2cc1OC`, the T/C runs as follows: under setting [9], 96 % of control; under setting [10], 97 % of control; under setting [11], 88 % of control; under setting [12], 98 % of control; under setting [13], 103 % of control.

As to `CN(C)CC1C2C=CC(C2)C1CN(C)C` (centres undefined), the T/C under setting [7] was 96 % of control and the T/C under setting [8] is 91 % of control.
